Activity calls are given as the source filed them.
Experiments:
Interleukin-8 [1] = target: T1, Interleukin-8 (Homo sapiens, UniProt P10145); experiment: Dose Response confirmation of uHTS small molecule hits for cystic fibrosis induced NFkb Inhibitors in a TNFa-induced IL8 counterscreen.; assay type: functional; details: read-out: IC50_Mean
Interleukin-8 [2] = target: T1, Interleukin-8; experiment: Dose Response confirmation of uHTS small molecule hits for cystic fibrosis induced NFkb Inhibitors in a PAF-induced IL8 counterscreen.; assay type: functional; details: read-out: IC50_Mean
[3] = target: 72 kDa type IV collagenase (Homo sapiens, UniProt P08253); experiment: Dose Response validation of uHTS RPN11 inhibitor hits using a MMP-2 Fluorescence assay.; assay type: functional
Large T antigen = Large T antigen (Simian virus 40, UniProt P03070); assay type: functional, Betapolyomavirus macacae;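 note: Confirmatory-stage PubChem screen for compounds that inhibit SV40 T antigen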
[4] = target: 26S proteasome non-ATPase regulatory subunit 14 (Homo sapiens, UniProt O00487); experiment: inhibition of proteasome subunit RPN11 – biochemical, fluorescence polarization, uHTS hits, confirmation (AID 602368); assay type: functional
Prothrombin = Prothrombin (Bos taurus, UniProt P00735); experiment: thrombin inhibition, dose response, biochemical, fluorescence polarization, uHTS hits (AID 602369); assay type: functional
[5] = target: T2, Small ubiquitin-related modifier 1 (Homo sapiens, UniProt P63165); experiment: inhibitors of SUMO1 partner interactions, dose response, biochemical, FRET (AID 624383); assay type: functional; details: read-out: IC50_Mean
[6] = target: T3, Ubiquitin-conjugating enzyme E2 N (Homo sapiens, UniProt P61088); assay type: functional
T3 sequence (P61088 whole entry): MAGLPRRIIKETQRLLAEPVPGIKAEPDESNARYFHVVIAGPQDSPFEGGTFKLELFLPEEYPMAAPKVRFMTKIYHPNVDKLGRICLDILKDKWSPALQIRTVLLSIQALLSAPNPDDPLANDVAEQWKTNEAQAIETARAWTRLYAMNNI

Bcl-2-related protein A1 = target: T4, Bcl-2-related protein A1 (Mus musculus, UniProt Q07440); assay type: functional;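 note: confirmatory dose–response counterscreen on Bfl-1, used to check hits from a UBC13 polyubiquitin inhibitor campaign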
T4 sequence (Q07440 whole entry): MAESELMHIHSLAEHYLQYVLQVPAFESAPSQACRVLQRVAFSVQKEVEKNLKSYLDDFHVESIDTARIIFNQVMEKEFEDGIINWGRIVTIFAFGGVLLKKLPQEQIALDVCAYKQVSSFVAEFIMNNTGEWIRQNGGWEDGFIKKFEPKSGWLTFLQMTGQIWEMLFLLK

[7] = target: T3, Ubiquitin-conjugating enzyme E2 N; assay type: functional; remark: listed apart in the source
[8] = target: T5, Apoptotic protease-activating factor 1 (Homo sapiens, UniProt O14727); experiment: SAR analysis of small molecule inhibitors of Apaf-1 in a Fluorescent assay.; assay type: functional; details: read-out: IC50_Mean
T5 sequence (O14727 whole entry): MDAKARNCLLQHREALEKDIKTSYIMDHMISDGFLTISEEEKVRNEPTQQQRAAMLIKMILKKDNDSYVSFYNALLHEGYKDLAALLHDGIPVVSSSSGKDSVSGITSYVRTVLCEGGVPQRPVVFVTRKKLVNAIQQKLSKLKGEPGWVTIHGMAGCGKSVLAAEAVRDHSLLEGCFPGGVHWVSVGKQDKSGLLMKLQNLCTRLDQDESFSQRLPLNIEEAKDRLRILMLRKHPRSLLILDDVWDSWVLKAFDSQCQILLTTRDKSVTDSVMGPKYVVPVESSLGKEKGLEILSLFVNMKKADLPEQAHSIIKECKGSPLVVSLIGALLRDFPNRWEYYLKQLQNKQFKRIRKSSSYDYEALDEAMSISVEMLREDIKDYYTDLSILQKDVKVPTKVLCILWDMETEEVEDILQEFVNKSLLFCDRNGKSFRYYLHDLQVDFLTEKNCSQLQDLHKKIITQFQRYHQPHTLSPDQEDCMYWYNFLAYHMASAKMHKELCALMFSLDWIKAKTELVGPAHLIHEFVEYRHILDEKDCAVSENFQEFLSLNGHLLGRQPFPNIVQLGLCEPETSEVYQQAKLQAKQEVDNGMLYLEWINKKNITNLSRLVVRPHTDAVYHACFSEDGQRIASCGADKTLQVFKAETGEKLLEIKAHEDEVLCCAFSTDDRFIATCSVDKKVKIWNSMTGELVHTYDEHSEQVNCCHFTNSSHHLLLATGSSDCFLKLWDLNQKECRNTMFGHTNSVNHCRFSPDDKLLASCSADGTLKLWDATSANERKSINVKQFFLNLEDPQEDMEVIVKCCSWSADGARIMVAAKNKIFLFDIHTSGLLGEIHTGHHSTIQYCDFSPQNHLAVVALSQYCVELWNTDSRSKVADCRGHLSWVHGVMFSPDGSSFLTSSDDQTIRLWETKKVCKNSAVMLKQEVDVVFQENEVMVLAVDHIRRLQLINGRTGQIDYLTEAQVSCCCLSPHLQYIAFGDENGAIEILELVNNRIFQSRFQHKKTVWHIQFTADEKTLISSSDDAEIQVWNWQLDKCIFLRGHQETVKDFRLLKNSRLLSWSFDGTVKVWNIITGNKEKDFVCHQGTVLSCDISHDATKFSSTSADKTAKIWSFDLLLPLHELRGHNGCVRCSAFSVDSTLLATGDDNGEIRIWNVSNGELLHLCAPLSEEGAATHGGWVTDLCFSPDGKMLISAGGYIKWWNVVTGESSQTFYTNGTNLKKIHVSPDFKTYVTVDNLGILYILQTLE

[9] = target: T2, Small ubiquitin-related modifier 1; experiment: inhibitors of SUMO1 peptide binding, dose response, biochemical, fluorescence polarization, uHTS hits (AID 624382); assay type: functional; details: read-out: IC50_Mean
[10] = StAR promoter reporter inhibition counter-screen, dose response, counter-screen for LRH-1 inverse agonist project, cell-based, luminescence, luciferase reporter (AID 651969); assay type: functional
[11] = target: Nuclear receptor subfamily 5 group A member 2 (Homo sapiens, UniProt O00482); assay type: functional, cell-based;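 note: HEK293T cells transfected with LRH-1 and a StAR promoter luciferase reporter; potency for inhibitors that lower LRH-1 driven reporter light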
Steroidogenic factor 1 = Steroidogenic factor 1 (Homo sapiens, UniProt Q13285); experiment: Counterscreen for inverse agonists of the liver receptor homolog-1 (LRH-1; NR5A2): Luminescence-based cell-based high throughput dose response assay to identify inverse agonists of the Steroidogenic Factor 1 Nuclear Receptor (SF1; NR5A1).; assay type: functional
[12] = target: Photoreceptor-specific nuclear receptor (Homo sapiens, UniProt Q9Y5X4); assay type: functional, cell-based;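 note: CHO-S cells with Gal4-NCOR and VP16-NR2E3 two-hybrid luciferase reporter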
BJ [13] = experiment: cytotoxicity toward Ras-transformed BJeLR fibroblasts, dose response, cell-based, alamar blue fluorescence, cherrypicked samples (AID 2631); assay type: functional; details: Homo sapiens;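 note: confirmatory dose-response assay in RAS-dependent BJ fibroblasts engineered with TERT, LT and ST, with cytotoxicity read by fluorescence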
BJ [14] = experiment: cells; assay type: functional, cell-based; details: Homo sapiens
[15] = cytotoxicity toward DRD oncogenic fibroblasts, dose response, cell-based, non-viral oncogenic, luminescence (AID 1934); assay type: functional; details: Homo sapiens
BJ [16] = experiment: cytotoxicity toward BJ-TERT fibroblasts, dose response, cell-based, RAS-independent, luminescence (AID 1933); assay type: functional; details: Homo sapiens
BJ [17] = experiment: cytotoxicity toward BJ-TERT-LT-ST fibroblasts, dose response, cell-based, RAS-independent, luminescence (AID 1935); assay type: functional; details: Homo sapiens;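 note: BJ fibroblasts immortalized with TERT plus LT and ST oncogenes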
[18] = cytotoxicity in HEK-293T cells, dose response, cytotoxicity control for TCR NF-kB inhibitor project, luminescence, T-cell screen hits (AID 489026); assay type: functional, cell-based;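 note: cells exposed to compound about 14 hours before the viability readout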
cells = assay type: functional, cell-based; details: HEK-CNG
Streptococcus = experiment: Group A Streptococcus viability loss, dose response, counter-screen for streptokinase expression inhibitor project, luminescence, BacTiterGlo (AID 1915); assay type: functional, organism-based;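 note: potency for reduction of bacterial viability or growth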
Fatty acid synthase [19] = target: T6, Fatty acid synthase (Homo sapiens, UniProt P49327); experiment: FAS thioesterase domain inhibitors, dose response, biochemical, endpoint fluorescence intensity, uHTS hits (AID 624327); assay type: functional;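 note: fluorescence from hydrolysis of an O-methyl fluorescein acyl ester substrate by the enzyme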
Galanin receptor type 3 = target: T7, Galanin receptor type 3 (Homo sapiens, UniProt O60755); experiment: Fluorescence-based cell-based primary high throughput dose response assay to identify antagonists of the Galanin Receptor 3 (GalR3).; assay type: functional
T7 sequence (O60755 whole entry): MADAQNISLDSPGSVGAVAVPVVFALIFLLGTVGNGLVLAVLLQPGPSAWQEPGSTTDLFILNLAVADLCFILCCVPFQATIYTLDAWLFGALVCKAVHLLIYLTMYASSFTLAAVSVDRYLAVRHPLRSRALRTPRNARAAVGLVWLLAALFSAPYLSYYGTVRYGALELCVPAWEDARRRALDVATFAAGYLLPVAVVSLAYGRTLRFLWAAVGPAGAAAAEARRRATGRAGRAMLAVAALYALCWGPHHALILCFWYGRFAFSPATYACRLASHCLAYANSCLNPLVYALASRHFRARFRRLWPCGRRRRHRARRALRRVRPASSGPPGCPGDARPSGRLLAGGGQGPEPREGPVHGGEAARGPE

Fatty acid synthase [20] = target: T6, Fatty acid synthase; experiment: FAS thioesterase domain inhibitors, dose response, biochemical, kinetic fluorescence intensity (AID 624326); assay type: functional;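 note: rate of fluorescence rise from hydrolysis of a fluorogenic O-methyl fluorescein ester substrate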
[21] = tested on: Streptococcus sp. 'group A'; experiment: growth inhibition of control SK(-) GAS strain, dose response, counter-screen for streptokinase expression inhibitor project, luminescence, kanamycin, BacTiterGlo, confirmation (AID 1900); assay type: functional, organism-based
[22] = target: T8, ATP-dependent translocase ABCB1 (Homo sapiens, UniProt P08183); experiment: ABCB1 efflux inhibitor potency, dose response, Jurkat-DNR cells, JC-1, flow cytometry, set 2 (AID 504569); assay type: functional; details: read-out: EC50_MICROM_;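 note: potency of pump inhibitors that raise cellular JC-1 green fluorescence up to the nicardipine level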
[23] = target: T8, ATP-dependent translocase ABCB1; experiment: ABCG2 efflux pump inhibitor potency, dose response, Ig-MXP3 cells, JC-1, flow cytometry, set 2 (AID 504566); assay type: functional; details: read-out: EC50_MICROM_;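 note: flow cytometry median green fluorescence of retained JC-1 dye; potency of efflux pump inhibition measured as rising substrate retention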
[24] = target: Adenosylmethionine-8-amino-7-oxononanoate aminotransferase (Mycobacterium tuberculosis, UniProt P9WQ81); experiment: Mycobacterium tuberculosis BioA enzyme inhibitor Measured in Biochemical System Using Plate Reader - 2163-02_Inhibitor_Dose_CherryPick_Activity.; assay type: functional, Mycobacterium tuberculosis UT205
[25] = C. albicans growth with fluconazole, confirmation, fluorescence, retest (AID 2467); assay type: functional, cell-based
[26] = NIH-3T3 fibroblast cytotoxicity, dose response, cytotoxicity control, cell-based, fluorescence, Alamar Blue, secondary assay (AID 2327); assay type: functional;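 note: NIH-3T3 mouse fibroblasts cultured with fluconazole at 8 µg/mL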
[27] = Luminescence Cell-Based Dose Retest to Confirm Inhibitors of Cancer Stem Cells. [Related pubchem assays (depositor defined):AID2717, AID2721]; assay type: functional; details: Homo sapiens
[28] = target: Serine/threonine-protein phosphatase (Candida dubliniensis (strain CD36 / CBS 7987 / NCPF 3949 / NRRLY-17841) (Yeast), UniProt B9W6M3); experiment: calcineurin pathway inhibitors in yeast reporter, dose response, S. cerevisiae, CDRE-lacZ, luminescence, secondary (AID 2388); assay type: functional, cell-based;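 note: yeast reporter cells carrying a calcineurin-responsive lacZ construct stimulated with calcium chloride; luminescent beta-galactosidase reporter signal in whole cells rather than isolated phosphatase activity; potency for inhibition where a drop in reporter signal means calcineurin blockade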
[29] = target: ATP-dependent molecular chaperone HSP82 (Candida albicans (strain WO-1) (Yeast), UniProt C4YTQ8); experiment: loss of DOC-induced GRE-beta-galactosidase reporter signal, dose response, Hsp90 inhibitor project, S. cerevisiae, luminescence (AID 2400); assay type: functional, cell-based;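 note: beta-galactosidase luminescence from glucocorticoid response element reporter as proxy for Hsp90 function; inhibitor potency where signal loss means Hsp90 inhibition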

T8 sequence (P08183 whole entry): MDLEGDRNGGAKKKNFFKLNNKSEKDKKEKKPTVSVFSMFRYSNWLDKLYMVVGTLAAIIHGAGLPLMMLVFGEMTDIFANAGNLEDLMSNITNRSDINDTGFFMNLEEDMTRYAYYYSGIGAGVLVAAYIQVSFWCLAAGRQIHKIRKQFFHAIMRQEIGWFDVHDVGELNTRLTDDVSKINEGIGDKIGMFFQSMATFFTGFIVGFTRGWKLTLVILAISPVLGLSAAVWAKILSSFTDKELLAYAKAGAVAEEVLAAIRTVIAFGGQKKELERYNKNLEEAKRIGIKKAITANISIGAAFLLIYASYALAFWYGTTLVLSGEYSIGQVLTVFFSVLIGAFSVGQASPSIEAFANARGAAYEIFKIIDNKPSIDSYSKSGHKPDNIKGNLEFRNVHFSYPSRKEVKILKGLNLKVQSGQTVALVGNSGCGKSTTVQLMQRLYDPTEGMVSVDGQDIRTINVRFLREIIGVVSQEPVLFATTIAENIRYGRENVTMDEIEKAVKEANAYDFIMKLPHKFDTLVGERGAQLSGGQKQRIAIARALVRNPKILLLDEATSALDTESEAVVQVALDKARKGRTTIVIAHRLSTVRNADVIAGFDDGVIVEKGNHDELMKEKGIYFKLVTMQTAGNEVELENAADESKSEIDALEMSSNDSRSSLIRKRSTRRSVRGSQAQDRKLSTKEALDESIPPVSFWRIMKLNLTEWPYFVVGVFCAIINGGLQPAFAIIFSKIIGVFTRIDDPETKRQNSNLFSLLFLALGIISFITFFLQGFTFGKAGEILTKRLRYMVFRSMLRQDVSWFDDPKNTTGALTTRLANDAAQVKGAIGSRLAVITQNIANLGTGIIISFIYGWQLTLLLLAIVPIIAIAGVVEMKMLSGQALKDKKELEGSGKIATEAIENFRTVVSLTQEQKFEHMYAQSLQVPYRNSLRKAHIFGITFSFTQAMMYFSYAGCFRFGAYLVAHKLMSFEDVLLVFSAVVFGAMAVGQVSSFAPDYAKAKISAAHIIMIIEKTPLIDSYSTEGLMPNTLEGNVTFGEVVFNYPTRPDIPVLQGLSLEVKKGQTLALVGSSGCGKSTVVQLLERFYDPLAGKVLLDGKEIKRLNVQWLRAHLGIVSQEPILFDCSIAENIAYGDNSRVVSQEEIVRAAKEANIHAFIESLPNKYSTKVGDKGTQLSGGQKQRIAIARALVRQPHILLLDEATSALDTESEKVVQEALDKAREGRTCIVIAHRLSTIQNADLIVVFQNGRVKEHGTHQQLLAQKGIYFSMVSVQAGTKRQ
T6 sequence (P49327 whole entry, the tested form may be a part): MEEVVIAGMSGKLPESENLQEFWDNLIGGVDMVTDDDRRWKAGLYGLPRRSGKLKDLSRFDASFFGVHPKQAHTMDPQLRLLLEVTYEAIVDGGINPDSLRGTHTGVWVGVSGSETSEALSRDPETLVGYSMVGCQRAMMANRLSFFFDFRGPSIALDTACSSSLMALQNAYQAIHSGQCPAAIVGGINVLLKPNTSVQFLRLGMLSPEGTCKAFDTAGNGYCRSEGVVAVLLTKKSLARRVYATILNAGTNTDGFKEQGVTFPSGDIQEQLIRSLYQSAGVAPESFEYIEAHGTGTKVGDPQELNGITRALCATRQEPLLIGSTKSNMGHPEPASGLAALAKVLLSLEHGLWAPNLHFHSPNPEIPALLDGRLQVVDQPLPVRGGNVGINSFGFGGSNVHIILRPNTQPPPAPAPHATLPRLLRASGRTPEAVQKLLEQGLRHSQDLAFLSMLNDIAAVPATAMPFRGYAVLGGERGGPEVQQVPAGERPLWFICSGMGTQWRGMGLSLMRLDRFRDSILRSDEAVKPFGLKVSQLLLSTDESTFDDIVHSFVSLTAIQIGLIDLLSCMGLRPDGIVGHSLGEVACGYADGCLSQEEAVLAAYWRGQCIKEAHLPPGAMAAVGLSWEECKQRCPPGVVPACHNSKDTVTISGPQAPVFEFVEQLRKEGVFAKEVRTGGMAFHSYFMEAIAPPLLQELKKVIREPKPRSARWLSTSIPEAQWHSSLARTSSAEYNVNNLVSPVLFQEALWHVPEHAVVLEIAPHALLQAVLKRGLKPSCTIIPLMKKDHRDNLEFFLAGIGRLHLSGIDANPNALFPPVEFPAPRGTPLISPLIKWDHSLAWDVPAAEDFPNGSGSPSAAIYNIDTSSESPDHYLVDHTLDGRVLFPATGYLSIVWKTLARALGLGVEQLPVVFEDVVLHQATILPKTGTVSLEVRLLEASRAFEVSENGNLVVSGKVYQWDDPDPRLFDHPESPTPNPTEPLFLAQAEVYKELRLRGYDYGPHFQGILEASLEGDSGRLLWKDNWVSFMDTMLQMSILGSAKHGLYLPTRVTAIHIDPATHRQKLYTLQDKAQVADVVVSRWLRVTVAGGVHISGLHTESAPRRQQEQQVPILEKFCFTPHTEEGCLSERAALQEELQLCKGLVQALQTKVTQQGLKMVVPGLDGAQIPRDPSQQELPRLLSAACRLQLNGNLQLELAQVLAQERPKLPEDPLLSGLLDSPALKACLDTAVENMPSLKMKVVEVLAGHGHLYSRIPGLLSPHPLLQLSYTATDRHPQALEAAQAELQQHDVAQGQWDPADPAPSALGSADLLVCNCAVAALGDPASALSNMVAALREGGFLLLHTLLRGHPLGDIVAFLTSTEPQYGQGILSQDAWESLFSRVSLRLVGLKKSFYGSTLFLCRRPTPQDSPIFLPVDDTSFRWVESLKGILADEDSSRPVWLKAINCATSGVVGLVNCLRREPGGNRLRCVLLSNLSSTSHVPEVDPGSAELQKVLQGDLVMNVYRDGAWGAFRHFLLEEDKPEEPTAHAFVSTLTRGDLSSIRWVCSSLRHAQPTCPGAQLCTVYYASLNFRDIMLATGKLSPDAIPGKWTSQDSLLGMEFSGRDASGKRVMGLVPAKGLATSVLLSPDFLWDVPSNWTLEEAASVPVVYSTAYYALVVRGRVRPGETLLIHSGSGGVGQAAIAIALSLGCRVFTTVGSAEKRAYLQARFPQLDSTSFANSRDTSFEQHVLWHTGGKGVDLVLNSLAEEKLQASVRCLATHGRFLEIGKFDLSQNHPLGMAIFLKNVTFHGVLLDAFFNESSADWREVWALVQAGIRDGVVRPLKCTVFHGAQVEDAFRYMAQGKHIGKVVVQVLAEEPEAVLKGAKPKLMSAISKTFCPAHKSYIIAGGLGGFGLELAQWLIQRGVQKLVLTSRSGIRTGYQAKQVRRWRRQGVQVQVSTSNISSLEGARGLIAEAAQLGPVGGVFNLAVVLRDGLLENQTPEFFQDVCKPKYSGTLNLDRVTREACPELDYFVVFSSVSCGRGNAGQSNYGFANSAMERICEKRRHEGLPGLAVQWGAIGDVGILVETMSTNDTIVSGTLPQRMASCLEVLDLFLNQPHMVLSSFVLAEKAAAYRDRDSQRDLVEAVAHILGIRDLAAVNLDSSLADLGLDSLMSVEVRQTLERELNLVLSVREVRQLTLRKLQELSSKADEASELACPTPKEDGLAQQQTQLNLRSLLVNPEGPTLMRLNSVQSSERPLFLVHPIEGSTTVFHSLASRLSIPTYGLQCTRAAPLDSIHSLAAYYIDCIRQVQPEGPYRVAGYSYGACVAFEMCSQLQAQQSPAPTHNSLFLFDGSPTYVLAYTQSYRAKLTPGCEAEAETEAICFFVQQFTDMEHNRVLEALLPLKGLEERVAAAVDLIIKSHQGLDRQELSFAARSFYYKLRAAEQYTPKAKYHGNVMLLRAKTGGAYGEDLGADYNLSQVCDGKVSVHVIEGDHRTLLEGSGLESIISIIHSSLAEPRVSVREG
Chain of 72 kDa type IV collagenase (P08253 whole entry): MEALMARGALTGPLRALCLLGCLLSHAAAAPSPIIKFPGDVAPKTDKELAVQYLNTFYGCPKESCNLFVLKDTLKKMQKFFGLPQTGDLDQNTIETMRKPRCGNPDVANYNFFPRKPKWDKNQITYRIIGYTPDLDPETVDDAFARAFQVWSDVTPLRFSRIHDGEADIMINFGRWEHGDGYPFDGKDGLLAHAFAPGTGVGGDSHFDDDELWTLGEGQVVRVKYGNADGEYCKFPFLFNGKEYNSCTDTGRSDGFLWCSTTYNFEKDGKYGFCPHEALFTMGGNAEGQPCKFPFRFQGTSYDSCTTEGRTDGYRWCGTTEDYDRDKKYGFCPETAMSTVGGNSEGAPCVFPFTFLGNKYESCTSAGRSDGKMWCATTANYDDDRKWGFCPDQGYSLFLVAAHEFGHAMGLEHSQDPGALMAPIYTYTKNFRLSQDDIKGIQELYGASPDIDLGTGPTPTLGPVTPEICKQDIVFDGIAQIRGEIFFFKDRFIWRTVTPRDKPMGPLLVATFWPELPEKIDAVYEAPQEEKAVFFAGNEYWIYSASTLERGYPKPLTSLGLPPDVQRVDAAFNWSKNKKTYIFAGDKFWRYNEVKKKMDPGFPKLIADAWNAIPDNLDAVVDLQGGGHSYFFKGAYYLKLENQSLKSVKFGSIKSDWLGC
T1 sequence (P10145 whole entry): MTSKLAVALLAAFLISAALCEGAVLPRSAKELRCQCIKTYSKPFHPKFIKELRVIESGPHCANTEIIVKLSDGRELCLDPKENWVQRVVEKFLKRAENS
Chain of 26S proteasome non-ATPase regulatory subunit 14 (O00487 whole entry): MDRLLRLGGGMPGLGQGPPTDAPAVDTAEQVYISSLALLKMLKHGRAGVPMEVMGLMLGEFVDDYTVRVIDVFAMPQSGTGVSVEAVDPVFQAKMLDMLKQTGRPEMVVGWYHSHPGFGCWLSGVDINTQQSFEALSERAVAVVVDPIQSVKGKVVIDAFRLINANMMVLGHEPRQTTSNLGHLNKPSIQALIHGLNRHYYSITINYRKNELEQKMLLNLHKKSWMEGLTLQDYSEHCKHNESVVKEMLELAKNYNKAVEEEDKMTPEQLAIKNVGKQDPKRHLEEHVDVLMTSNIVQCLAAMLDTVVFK
T2 sequence (P63165 whole entry): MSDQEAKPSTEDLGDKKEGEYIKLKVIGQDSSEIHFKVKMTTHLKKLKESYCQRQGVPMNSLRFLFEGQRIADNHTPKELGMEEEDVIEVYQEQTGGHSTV

In the case of `CCN1CCN(Cc2ccc(NC(=O)c3ccc(C)c(NC(=O)N4CCNC4=O)c3)cc2C(F)(F)F)CC1`, the IC50 (Interleukin-8 [1]) was > 79 µM (inactive) and the IC50 (Interleukin-8 [2]) was 56.5 µM (inactive).
With `Cc1cc(C(=O)c2cccs2)c(N)s1` the IC50 [3] was 32.7 µM (active), the IC50 (Large T antigen) was 51.8 µM (active) and the IC50 [4] was 20.5 µM (active). For the same molecule, the IC50 (Prothrombin) was 28.2 µM (active).
In the case of `CCN(CC)CCOC(=O)c1ccc(N/C=C(/C#N)c2nc(-c3ccc(OC)cc3)cs2)cc1`, the IC50 [5] was 5.97 µM (active), the IC50 [6] was 4.3 µM (active) and the IC50 (Bcl-2-related protein A1) was 2.99 µM (active). For the same molecule, the IC50 [7] was 4.88 µM (active), the IC50 [8] was 9.94 µM (active) and the IC50 [9] was > 66.6 µM (inactive).
In the case of `O=C(CSc1n[nH]c(-c2ccccc2)n1)Nc1ccc(F)cc1F`, the IC50 [10] was 35.9 µM (inactive), the IC50 [11] was 3.99 µM (active) and the IC50 (Steroidogenic factor 1) was 3.68 µM (active).
With `Cc1cccc(NS(=O)(=O)c2ccc(-c3cnc(C4CC4)o3)cc2)c1C` the IC50 [12] was 6.35 µM (active), the EC50 (BJ [13]) was < 0.104 µM (active) and the EC50 (BJ [14]) was 2.51 µM (active). The EC50 [15] was 2.74 µM (inconclusive), the EC50 (BJ [16]) was 2.67 µM (active) and the EC50 (BJ [17]) was 2.88 µM (inconclusive). For the same molecule, the IC50 [18] was 67.5 µM (inactive).
With `COc1cc([N+](=O)[O-])cc(/C=N/NC(=O)c2cncc(Br)c2)c1O` the EC50 (cells) was > 29.9 µM (inactive), the IC50 [3] was 12.5 µM (active) and the EC50 (Streptococcus) was 1.02 µM (active). The IC50 (Fatty acid synthase [19]) was 20 µM (active), the IC50 (Galanin receptor type 3) was > 9.97 µM (active) and the IC50 [4] was 49.5 µM (active). The IC50 (Fatty acid synthase [20]) was 10.2 µM (active), the IC50 (Prothrombin) was 39.1 µM (active) and the EC50 [21] was 1.85 µM (active).
For `COc1ccc(N2C(=O)CC3(CC(c4ccc(F)cc4)=NO3)C2=O)cc1` (stereo not given), the IC50 [8] was 58.3 µM (active).
In the case of `O=C(c1ccco1)N1CCN(c2cc(Cc3ccccc3)nc3cc(-c4cccc(Cl)c4)nn23)CC1`, the EC50 [22] was 4.21 µM (active) and the EC50 [23] was 0.8 µM (active).
In the case of `O=C(N[C@@H]1CC[C@H](CCn2cc(-c3cccnc3)nn2)O[C@@H]1CO)c1ccccc1F`, the AC50 [24] was 6.17 µM (active).
For `CC/C(=N/NC(=O)c1ccccc1O)c1c(C)nn(-c2ccccc2)c1O`, the EC50 [25] was 0.114 µM (active), the EC50 [26] was 39 µM (active) and the AC50 [27] was 3.29 µM (active). The EC50 [28] was > 180 µM (inactive) and the EC50 [29] was > 150 µM (inactive).
